Experimental data as given in article PMC6510840, “A phase 1b study of transforming growth factor-beta receptor I inhibitor galunisertib in combination with sorafenib in Japanese patients with unresectable hepatocellular carcinoma” (Investigational New Drugs, 2018).
Like-named read-outs stand apart in the source and are kept apart here. Marks after values point to notes of the source that are not given here.

Tests used:
advanced HCC = system: advanced HCC; set-up: method as in earlier work; conditions: galunisertib monotherapy, cited from earlier work
[1] = system: Japanese patients with unresectable hepatocellular carcinoma; experiment: Safety and tolerability (DLTs, TEAEs, SAEs, QTc) in phase 1b study; conditions: for 14 days (then 14 days rest), in combination with sorafenib
Protocol: All eligible patients in this phase 1b, open-label, dose-escalation, multicenter, nonrandomized study received oral administration of galunisertib (160 mg or 300 mg/day) in combination with oral administration of sorafenib 800 mg/day. A cycle was defined as 28 days. Galunisertib was administered at either 80 mg twice daily or 150 mg twice daily for 14 days, followed by 14 days of galunisertib treatment rest, and sorafenib 400 mg twice daily for 28 days. Patients continued treatment until a discontinuation criterion was met.
The DLT evaluation period was 28 days after the first dose. Tolerability was defined as a dose where 2 or fewer of 6 patients experience DLTs. A minimum of 3 patients were planned to be enrolled in the galunisertib 160 mg/day plus sorafenib group, and a minimum of 6 patients were planned to be enrolled in the galunisertib 300 mg/day plus sorafenib group. […]
The sample size was determined based on the study design to evaluate the DLTs, safety, and tolerability of galunisertib in two sequential study treatment groups. […] Patients without a DLT who discontinued the study in cycle 1 due to disease progression, or discontinued sorafenib in cycle 1 for reasons other than disease progression, were assessed for appropriateness of DLT evaluation per Efficacy and Safety Evaluation Committee recommendations. […]

[2] = Noncompartmental plasma pharmacokinetics in phase 1b study; assay type: in vivo, human; conditions: for Tmax / half-life / AUC(0-t) / Cmax / AUC(0-inf) / Vd/F: human, plasma; for Cmax: geometric mean (CV%); for Vd/F: read-out: VZ/F
Protocol: PK analyses were conducted on patients who received at least one dose of galunisertib and had PK samples collected. The PK parameters for galunisertib were calculated by standard noncompartmental methods of analysis using Phoenix™ WinNonlin® 6.4 (Pharsight, A Certara Company; Princeton, NJ, USA). The maximum plasma concentration, time to maximum plasma concentration (tmax), area under the plasma concentration versus time curve from time zero to the last time point with a measurable concentration, and area under the plasma concentration-time curve from time zero to infinity, half-life (t1/2), apparent total body clearance (CL/F), and apparent volume of distribution during the terminal phase (Vz/F) that could be calculated from the data were reported for galunisertib from the noncompartmental PK analyses. Sorafenib PK profiles on day 22 (sorafenib monotherapy) were compared with sorafenib PK profiles on day 14 (administration of galunisertib in combination with sorafenib) within the same patient and in each cohort.

HCC = system: HCC; set-up: method as in PMID 18650514; conditions: sorafenib arm, global SHARP study; cited from earlier work
[3] = po, Galunisertib 160 mg/day plus sorafenib, Cycle 1 Day 14, geometric mean (CV%), n = 3
[4] = po, Galunisertib 300 mg/day plus sorafenib, Cycle 1 Day 14, geometric mean (CV%), n = 3

In the case of `Cc1cccc(-c2nn3c(c2-c2ccnc4ccc(C(N)=O)cc24)CCC3)n1` [Galunisertib, galunisertib], the “median OS” value (advanced HCC; AFP <1.5 ULN (part B), 90% CI 10.4–24.1) is given as 16.8 months, the “median OS” value (advanced HCC; baseline AFP ≥1.5 ULN (part A), 90% CI 5.3–9.3) is given as 7.2 months and the “median time-to-progression (TTP)” value (advanced HCC; part A, 90% CI 1.4−2.9) is given as 2.7 months. For the same molecule, the “median time-to-progression (TTP)” value (advanced HCC; part B, 90% CI 2.3–5.5) was 4.1 months, the “recommended dose of galunisertib with confirmed tolerability” value [1] was 150 mg twice daily and the CL/F ([2]; Galunisertib 160 mg/day plus sorafenib, Cycle 1 Day 14, geometric mean (CV%), n = 3) was 10.1 (4)^d L/h. For the same molecule, the CL/F ([2]; Galunisertib 160 mg/day plus sorafenib, Cycle 1 Day 14, geometric mean (CV%), n = 3, listed as galunisertib) was 10.1 L/h, the CL/F ([2]; Galunisertib 300 mg/day plus sorafenib, Cycle 1 Day 14, geometric mean (CV%), n = 3) was 13.5 (9)^d L/h and the CL/F ([2]; Galunisertib 300 mg/day plus sorafenib, Cycle 1 Day 14, geometric mean (CV%), n = 3, listed as galunisertib) was 13.5 L/h. For the same molecule, the Tmax ([2]; oral, both galunisertib doses (160 and 300 mg/day) plus sorafenib, post-dose, read-out: median tmax) was 1 to 2 h, the half-life ([2]; oral, both galunisertib doses (160 and 300 mg/day) plus sorafenib, read-out: mean t1/2 (converted)) was about 4 h and the AUC(0-t) ([2]; po, 160 mg/day, Galunisertib 160 mg/day plus sorafenib, Cycle 1 Day 1, geometric mean (CV%), N 7, read-out: AUC(0-6)) was 2800 ng·h/mL. For the same molecule, the Tmax ([2]; po, 160 mg/day, Galunisertib 160 mg/day plus sorafenib, Cycle 1 Day 1, median (range), N 7, read-out: tmax) was 1.93 h, the Cmax ([2]; po, 160 mg/day, Galunisertib 160 mg/day plus sorafenib, Cycle 1 Day 1, plasma, N 7) was 899 ng/mL and the AUC(0-t) ([2]; po, 160 mg/day, Galunisertib 160 mg/day plus sorafenib, Cycle 1 Day 14, geometric mean (CV%), N 7, read-out: AUC(0-6)) was 3670 ng·h/mL. For the same molecule, the AUC(0-t) ([2]; po, 160 mg/day, Galunisertib 160 mg/day plus sorafenib, Cycle 1 Day 14, geometric mean (CV%), n = 6, read-out: AUC(0–24)) was 7170 ng·h/mL, the Tmax ([2]; po, 160 mg/day, Galunisertib 160 mg/day plus sorafenib, Cycle 1 Day 14, median (range), N 7, read-out: tmax) was 1.85 h and the Cmax ([2]; po, 160 mg/day, Galunisertib 160 mg/day plus sorafenib, Cycle 1 Day 14, plasma, N 7) was 1150 ng/mL. The AUC(0-t) ([2]; po, 300 mg/day, Galunisertib 300 mg/day plus sorafenib, Cycle 1 Day 1, geometric mean (CV%), N 7, read-out: AUC(0-6)) was 5040 ng·h/mL, the Tmax ([2]; po, 300 mg/day, Galunisertib 300 mg/day plus sorafenib, Cycle 1 Day 1, median (range), N 7, read-out: tmax) was 0.93 h and the Cmax ([2]; po, 300 mg/day, Galunisertib 300 mg/day plus sorafenib, Cycle 1 Day 1, plasma, N 7) was 1900 ng/mL. For the same molecule, the AUC(0-t) ([2]; po, 300 mg/day, Galunisertib 300 mg/day plus sorafenib, Cycle 1 Day 14, geometric mean (CV%), N 4, read-out: AUC(0-6)) was 5570 ng·h/mL, the AUC(0-t) ([2]; po, 300 mg/day, Galunisertib 300 mg/day plus sorafenib, Cycle 1 Day 14, geometric mean (CV%), N 4, read-out: AUC(0–24)) was 10600 ng·h/mL and the Tmax ([2]; po, 300 mg/day, Galunisertib 300 mg/day plus sorafenib, Cycle 1 Day 14, median (range), N 4, read-out: tmax) was 2.04 h. The Cmax ([2]; po, 300 mg/day, Galunisertib 300 mg/day plus sorafenib, Cycle 1 Day 14, plasma, N 4) was 2000 ng/mL, the AUC(0-inf) [2, 3] was 7870 ng·h/mL and the Vd/F [2, 3] was 62 L. The half-life ([2]; po, Galunisertib 160 mg/day plus sorafenib, Cycle 1 Day 14, geometric mean (range), n = 3, read-out: t1/2 (converted)) was 4.24 h, the AUC(0-inf) [2, 4] was 11100 ng·h/mL and the Vd/F [2, 4] was 78.1 L. The half-life ([2]; po, Galunisertib 300 mg/day plus sorafenib, Cycle 1 Day 14, geometric mean (range), n = 3, read-out: t1/2 (converted)) was 4.01 h.
In the case of `CNC(=O)c1cc(Oc2ccc(NC(=O)Nc3ccc(Cl)c(C(F)(F)F)c3)cc2)ccn1` [sorafenib], the “median OS” value (HCC) is given as 10.7 months and the “PK profile of sorafenib in combination with galunisertib” value ([2]; day 14 (with galunisertib) versus day 22 (sorafenib monotherapy), data not shown) is given as “comparable to that of sorafenib administered alone”.
